Article PMC8264259, “A Novel Ruthenium(II) Complex With Lapachol Induces G2/M Phase Arrest Through Aurora-B Kinase Down-Regulation and ROS-Mediated Apoptosis in Human Prostate Adenocarcinoma Cells” (Frontiers in Oncology, 2021)

Experiments:
[1] = system: PNT-2 (human prostate epithelial cells); experiment: Alamar blue cytotoxicity assay, PNT-2 non-cancer cells; format: cell-based; details: 24-h incubation, mean ± S.E.M.
From the text: (§1) Human lung carcinoma (A549, ATCC® CCL-185™), human hepatocellular carcinoma (HepG2, ATCC® HB-8065™), and human breast adenocarcinoma (MDA-MB-231, ATCC® HTB-26™) were obtained from American Type Cell Collection (ATCC). Human melanoma (A-375, BCRJ-0278), Human colorectal adenocarcinoma (Caco-2, BCRJ 0059), human prostate adenocarcinoma (DU-145, BCRJ-0078, and PC-3, BCRJ-0269), human mouth fibroblast (FGH, BCRJ-0089), and human prostate epithelial cells (PNT-2, BCRJ-0366) were obtained from Rio de Janeiro Cells Bank (BCRJ). The cells A549, A-375, Caco-2, DU-145, HepG2, MDA-MB-231, and FGH were cultured in Dulbecco’s Modified Eagle’s Medium (DMEM, Gibco-Invitrogen®), PC-3 and PNT-2 cells were grown in Roswell Park Memorial Institute Medium (RPMI-1640, Gibco-Invitrogen®). Both mediums were supplemented according to the needs of each lineage, as recommended by its cell banks with 2 mM L-glutamine (Gibco-Invitrogen®), 10% or 20% fetal bovine serum (Gibco-Invitrogen®), 1% antibiotic-antimycotic solution (5 mg/ml penicillin, 5 mg/ml streptomycin, and 10 mg/ml neomycin, Gibco-Invitrogen®), and 3.7 g/L of NaHCO3 (Sigma-Aldrich). All cell lines were cultured in flasks at 37°C in 5% CO2 and 96% of relative humidity according to the procedures proposed by ([31]), and a mycoplasma stain kit (Sigma-Aldrich) was used to confirm the use of cells devoid of contamination. The assays were conducted between the third and the seventh-cell passage with sub-cultures every 3 to 4 days to maintain exponential growth. The cell viability was checked using the trypan blue dye exclusion assay for all experiments where over 95% of the cells were viable at the beginning of the tests.
(§2) The in vitro antiproliferative activity was quantified using the Alamar blue® assay, according to the method reported by ([32]). Cells were seeded in 96-well plates for all experiments (1.5 × 10^4 cells/well). After 24 h, the complexes were dissolved in DMSO and added to each well and incubated for 24 h. Dilutions of the complexes were prepared to obtain concentrations ranging from 0.3 to 100 μM. […] DMSO (0.1% v/v) was used as the vehicle control. Following 24 h of incubation, 50 μl of Alamar blue® (resazurin at 0.01% w/v, Sigma-Aldrich) was added to each well, and the plates were incubated, at 37°C, in the dark. Fluorescence reading was performed in a Synergy H1 Fluorescence Spectrophotometer (BioTek®), using excitation and emission filters at wavelengths of 560 and 590 nm, respectively. The fluorescence intensity was measured in arbitrary fluorescence units (AFU) and the AFU of untreated cells (CTL) was considered 100%. The cytotoxic effects of the compounds were estimated in terms of cell proliferation inhibition (%) and expressed as half-maximal inhibitory concentration (IC50). The cell proliferation inhibition percentage of cells exposed to treatments was calculated following: % Inhibition = 100 − (AFU of treated well/AFU of control well) × 100). The IC50 values were calculated from the cell proliferation inhibition percentage by nonlinear regression method using CompusSyn® Software.

[2] = system: FGH (human mouth fibroblast); experiment: Alamar blue cytotoxicity assay, FGH non-cancer cells; format: cell-based; details: 24-h incubation, mean ± S.E.M.
From the text: as §1, §2

[3] = system: A549 (human lung carcinoma); experiment: Alamar blue cytotoxicity assay, A549; format: cell-based; details: for IC50: A549, Alamar blue, 24-h incubation, mean ± S.E.M.
From the text: as §1, §2

[4] = system: A-375 (human malignant melanoma); experiment: Alamar blue cytotoxicity assay, A-375; format: cell-based; details: for IC50: A-375, Alamar blue, 24-h incubation, mean ± S.E.M.
From the text: as §1, §2

[5] = system: HepG2 (human hepatocellular carcinoma); experiment: Alamar blue cytotoxicity assay, HepG2; format: cell-based; details: for IC50: HepG2, Alamar blue, 24-h incubation, mean ± S.E.M.
From the text: as §1, §2

[6] = system: Caco-2 (human colorectal adenocarcinoma); experiment: Alamar blue cytotoxicity assay, Caco-2; format: cell-based; details: for IC50: Caco-2, Alamar blue, 24-h incubation, mean ± S.E.M.
From the text: as §1, §2

Aurora-B = experiment: Western blot, Aurora-B expression; format: cell-based, human; details: DU-145, increasing concentrations (0.25-1.5 μM), 24 h
Description: Briefly, DU-145 cells were seeded (1.0 × 10^6 cells/well) into six-well plates and maintained to attach at 37°C in 5% CO2. After 24 h, cells were treated with 0.25, 0.50, 1.0, and 1.5 μM of complex (2). DMSO (0.1% v/v) was used as the vehicle control. After 24 h of incubation, cells were collected and suspended in Western blotting lysis buffer (20 mM Tris-HCl pH 7.4, 150 mM NaCl, 1 mM EDTA, and phosphatase and protease inhibitors). Cell lysates were centrifuged at 11,000g for 15 min at 4 °C, and supernatant was collected. Protein concentrations were quantified using the BCA Protein Assay Kit® (Thermo Fischer Scientific), according to the manufacturer’s instructions. For immunoblotting, equal amounts (30 μg) of total protein were electrophoresed in a NuPAGE® 4-12% Bis-Tris gel and transferred to an Invitrolon™ polyvinylidene difluoride (PVDF) membrane (Novex®, Thermo Fischer Scientific) at 100 V for 1 h. PVDF-membrane was washed two times (5 min each) with Tris-buffered saline plus Tween 20 (TBST, Sigma-Aldrich) and blocked in 5% non-fat milk in phosphate buffered saline with Tween®20 (PBST, Sigma-Aldrich) for 1 h at room temperature. […]

Row | Compound | IC50 [1] | IC50 [2] | IC50 [3] | Selectivity index (SI) ([3]; SI = IC50[FGH]/IC50[A549]) | Selectivity index (SI) ([3]; SI = IC50[PNT-2]/IC50[A549]) | IC50 [4] | Selectivity index (SI) ([4]; SI = IC50[FGH]/IC50[A-375]) | Selectivity index (SI) ([4]; SI = IC50[PNT-2]/IC50[A-375]) | IC50 [5] | Selectivity index (SI) ([5]; SI = IC50[FGH]/IC50[HepG2]) | Selectivity index (SI) ([5]; SI = IC50[PNT-2]/IC50[HepG2]) | IC50 [6] | Selectivity index (SI) ([6]; SI = IC50[FGH]/IC50[Caco-2]) | Selectivity index (SI) ([6]; SI = IC50[PNT-2]/IC50[Caco-2]) | Aurora-B protein levels (Aurora-B)
1 | CC(C)=CCC1=C([O-])C(=O)c2ccccc2C1=O.F[P-](F)(F)(F)(F)F.[Ru+2].c1ccc(-c2ccccn2)nc1.c1ccc(P(CP(c2ccccc2)c2ccccc2)c2ccccc2)cc1 [complex (1), [Ru(Lap)(dppm)(bipy)]PF6] | 5.9 ± 2.1 µM | 3.1 ± 0.2 µM | 3.3 ± 0.4 µM | 0.9 | 1.8 | 2.5 ± 0.6 µM | 1.2 | 2.4 | 1.7 ± 0.5 µM | 1.8 | 3.5 | 2 ± 0.6 µM | 1.5 | 2.9 | –
2 | CC(C)=CCC1=C([O-])C(=O)c2ccccc2C1=O.F[P-](F)(F)(F)(F)F.[Ru+2].c1ccc(P(CP(c2ccccc2)c2ccccc2)c2ccccc2)cc1.c1cnc2c(c1)ccc1cccnc12 [complex (2), [Ru(Lap)(dppm)(phen)]PF6] | 6.8 ± 1.5 µM | 2.5 ± 0.3 µM | 2.6 ± 0.1 µM | 1.0 | 2.6 | 0.9 ± 0.3 µM | 2.7 | 7.5 | 1.5 ± 0.2 µM | 1.7 | 4.5 | 1.2 ± 0.3 µM | 2.0 | 5.7 | downregulated
